Data as given in ChEMBL document CHEMBL2385000, “Design, synthesis and biological evaluation of indeno[1,2-d]thiazole derivatives as potent histone deacetylase inhibitors” (Bioorg Med Chem Lett, 2013).

Columns and labels:
[1] = target: T1, Histone deacetylase (Homo sapiens) (UniProt Q13547+O15379+Q9UBN7+Q92769+Q9UQL6+Q8WUI4+Q9BY41+Q96DB2+P56524+Q9UKV0+Q969S8); details: HeLa, at 10 µM
Description: Inhibition of HDAC in human HeLa cells using Fluor de Lys as substrate at 10 uM by fluorescence assay

[2] = target: T1, Histone deacetylase (Homo sapiens); details: HeLa, at 1 µM
Description: Inhibition of HDAC in human HeLa cells using Fluor de Lys as substrate at 1 uM by fluorescence assay

MCF7 = assay: Cytotoxicity against human MCF7 cells after 48 hrs by Sulforhodamine B assay; assay type: functional
HCT-116 = assay: Cytotoxicity against human HCT116 cells after 48 hrs by Sulforhodamine B assay; assay type: functional
Histone deacetylase = assay: Inhibition of HDAC in human HeLa cells using Fluor de Lys as substrate by fluorescence assay; assay type: cell-based

Structure (SMILES) | inhibition [1] | inhibition [2] | GI50 (MCF7; Homo sapiens, MCF7, 48 h) | GI50 (HCT-116; Homo sapiens, HCT-116, 48 h) | IC50 (Histone deacetylase) | GI50 (MCF7) | GI50 (HCT-116)
O=C(/C=C/c1ccc2c(c1)Cc1sc(Nc3ccccn3)nc1-2)NO | 77.7% | 25.5% |  |  |  |  | 
CNc1nc2c(s1)Cc1cc(/C=C/C(=O)NO)ccc1-2 |  |  | 1.39 µM | 1.86 µM |  |  | 
CC(C)(C)Nc1nc2c(s1)Cc1cc(/C=C/C(=O)NO)ccc1-2 | 95.3% | 39.8% |  |  |  |  | 
CC(C)Nc1nc2c(s1)Cc1cc(/C=C/C(=O)NO)ccc1-2 | 97.5% | 61.3% | 1.21 µM | 2.1 µM | 0.214 µM |  | 
O=C(/C=C/c1ccc2c(c1)Cc1sc(NCCN3CCOCC3)nc1-2)NO | 97.2% | 66.9% | 2.06 µM | 1.32 µM | 0.164 µM |  | 
Cc1ccc(Nc2nc3c(s2)Cc2cc(/C=C/C(=O)NO)ccc2-3)cc1 | 95.9% | 7.71% |  |  |  |  | 
O=C(/C=C/c1ccc2c(c1)Cc1sc(Nc3ccncc3)nc1-2)NO | 93.9% | 10.2% |  |  |  |  | 
CN(C)c1nc2c(s1)Cc1cc(/C=C/C(=O)NO)ccc1-2 | 97% | 71.7% | 1.26 µM | 1.61 µM | 0.157 µM |  | 
O=C(CCCCCCC(=O)Nc1ccccc1)NO [VORINOSTAT] |  |  |  |  |  | 0.689 µM | 0.878 µM
O=C(/C=C/c1ccc2c(c1)Cc1sc(NC3CCCCC3)nc1-2)NO | 93.6% | 24.8% |  |  |  |  | 
COc1ccc(CNc2nc3c(s2)Cc2cc(/C=C/C(=O)NO)ccc2-3)cc1 | 86.2% | 10.7% |  |  |  |  | 
COc1ccc(Nc2nc3c(s2)Cc2cc(/C=C/C(=O)NO)ccc2-3)cc1 | 95.5% | 45.1% |  |  |  |  | 
O=C(/C=C/c1ccc2c(c1)Cc1sc(Nc3ccccc3)nc1-2)NO | 95.3% | 20.7% |  |  |  |  | 
O=C(/C=C/c1ccc2c(c1)Cc1sc(Nc3ccc(F)cc3F)nc1-2)NO | 92.3% | 21.6% |  |  |  |  | 
O=C(/C=C/c1ccc2c(c1)Cc1sc(Nc3cccnc3)nc1-2)NO | 96.5% | 62% | 1.58 µM | 2.43 µM | 0.298 µM |  | 
Cc1cc(C)c(Nc2nc3c(s2)Cc2cc(/C=C/C(=O)NO)ccc2-3)c(C)c1 | 90% | 28.1% |  |  |  |  | 
O=C(/C=C/c1ccc2c(c1)Cc1sc(Nc3cccc(C(F)(F)F)c3)nc1-2)NO | 86.3% | 22.9% |  |  |  |  | 
CCCNc1nc2c(s1)Cc1cc(/C=C/C(=O)NO)ccc1-2 | 93.3% | 52.7% |  |  |  |  | 
O=C(/C=C/c1ccc2c(c1)Cc1sc(Nc3ccc(Cl)cc3)nc1-2)NO | 95.3% | 35.8% |  |  |  |  | 
COCCNc1nc2c(s1)Cc1cc(/C=C/C(=O)NO)ccc1-2 | 97.4% | 71.6% | 0.869 µM | 0.535 µM | 0.14 µM |  | 
